Experimental findings from patent US8663643B2, “Combinations of an anti-HER2 antibody-drug conjugate and chemotherapeutic agents, and methods of use” (Genentech, Inc., priority 2008, dated 2014) are described below.

“And” between values parts separate entries of the source, which are not always exact repeats. Equal values may be shown once.

In data set [1] the test system is MDA-MB-361.1 mammary tumor. Put plainly: MDA-MB-361.1 mammary tumor xenograft in CRL nu/nu mice. The class given is in vivo. How it is done: (§1) The efficacy of the combinations of the invention may be measured in vivo by implanting allografts or xenografts of cancer cells in rodents and treating the tumors with the combinations.
(§2) Tumor incidence (TI) was determined based on the number of measurable tumors remaining in each group at the end of the study. A partial response (PR) was defined as more than 50% but less than 100% reduction in tumor volume, compared with the starting tumor volume, observed for three consecutive measurements. A complete response (CR) was defined as a 100% reduction in tumor volume, compared with the initial tumor volume, observed for three consecutive measurements. Data were analyzed and p-values were determined using the Dunnett's t-test with JMP statistical software, version 5.1.2 (SAS Institute; Cary, N.C.). Individual tumor volumes at end of study and mean tumor volume±SEM values were calculated using JMP statistical software, version 5.1.2. Body weight data were graphed based on the mean percentage of change from initial body weights±SEM.

The subject of data set [2] is phospho-Akt, phospho-ERK, Rb, PRAS40, phospho-histone H3, cyclin B1, PARP, Bcl-XL, caspases 3 and 7. In words: biochemical analyses of biomarkers. The class given is cell-based.
The test system of another data set is KPL-4 tumors. In words: KPL-4 tumor xenograft in SCID beige mice. In kind it is in vivo. The following applies: for complete responses (CR) / partial responses (PR): FIG. 10. As for the experimental part: Pertuzumab was dosed on days 0, 7, and 14.
Pertuzumab was dosed on days 0, 7, 14, 21 (qwk×4. 5-FU was dosed on days 0, 7 and 14 (qwk×3). B20-4.1 was dosed on days 0, 3, 7, 10, 14, 17, 21 and 24 (2×/wk×8 total).
as §1
(§3) Animals suitable for transgenic experiments can be obtained from standard commercial sources. Groups of female CB-17 SCID beige mice (Charles River Laboratory) were implanted with 3 million KPL-4 (Her2 overexpressing) breast cancer cells with matrigel in the mammary fat pad. Groups of female athymic nude mice (Charles River Laboratory or Harlan) were implanted with 2×2 mm3 fragments of MMTV-Her2 Fo5 transgenic breast tumors in the mammary fat pad. Mouse xenografts were dosed at day 0 with drug, drug combination, or vehicle according to the schedule specified for each tumor model. […] Tumor sizes were recorded twice weekly over the course of the study. Mouse body weights were also recorded twice weekly, and the mice were observed regularly. […] Tumor inhibition graphs were plotted using KaleidaGraph, Version 3.6 (Synergy Software; Reading, Pa.). The tumor volume was calculated with formula: Tumor size (mm^3)=[…]
as §2

Data set [3] deals with MMTV-HER2 Fo5 transgenic mammary tumor. Put plainly: MMTV-HER2 Fo5 transgenic mammary tumor in CRL nu/nu mice. In kind it is in vivo. The following applies: FIG. 34; T-DM1 10 mg/kg iv q3wk; 5-FU 100 mg/kg po qwk×2; combination T-DM1 5 mg/kg + 5-FU 100 mg/kg; 42 day time point. How it is done:
B20-4.1 was dosed on days 0, 3, 7, 10, 14, 17, 21 and 24 (2×/wk×4 for 8 total).
[…] Gemcitabine was dosed on days 0, 3, 6 and 9 (q3d×4).
The efficacy of the combinations of the invention may be measured in vivo by implanting allografts or xenografts of cancer cells in rodents and treating the tumors with the combinations. Variable results are to be expected depending on the cell line, the presence or absence of certain mutations in the tumor cells, the sequence of administration of trastuzumab-MCC-DM1 and chemotherapeutic agent, dosing regimen, and other factors. Subject mice were treated with drug(s) or control (Vehicle) and monitored over several weeks or more to measure the time to tumor doubling, log cell kill, and tumor inhibition (Example 3). FIGS. 10-17 and 34-37 show the efficacy of trastuzumab-MCC-DM1 in combinations with chemotherapeutic agents by xenograft tumor inhibition in mice.
Animals suitable for transgenic experiments can be obtained from standard commercial sources. Groups of female CB-17 SCID beige mice (Charles River Laboratory) were implanted with 3 million KPL-4 (Her2 overexpressing) breast cancer cells with matrigel in the mammary fat pad. Groups of female athymic nude mice (Charles River Laboratory or Harlan) were implanted with 2×2 mm3 fragments of MMTV-Her2 Fo5 transgenic breast tumors in the mammary fat pad. Mouse xenografts were dosed at day 0 with drug, drug combination, or vehicle according to the schedule specified for each tumor model. 5-FU, gemcitabine, carboplatin and B20-4.1 were administered intraperitoneal, pertuzumab was given either intravenously or intraperitoneal as indicated, trastuzumab-MCC-DM1 and docetaxel were administered intravenously, lapatinib, GDC-0941 and ABT-869 were given periorally by gavage. Tumor sizes were recorded twice weekly over the course of the study. Mouse body weights were also recorded twice weekly, and the mice were observed regularly. Tumor volume was measured in two dimensions (length and width) using Ultra Cal IV calipers (Model 54-10-111; Fred V. Fowler Co., Inc.; Newton, Mass.) and analyzed using Excel v.11.2 (Microsoft Corporation; Redmond, Wash.). Tumor inhibition graphs were plotted using KaleidaGraph, Version 3.6 (Synergy Software; Reading, Pa.). The tumor volume was calculated with formula: Tumor size (mm^3)=[…]
Tumor incidence (TI) was determined based on the number of measurable tumors remaining in each group at the end of the study. […] Data were analyzed and p-values were determined using the Dunnett's t-test with JMP statistical software, version 5.1.2 (SAS Institute; Cary, N.C.). Individual tumor volumes at end of study and mean tumor volume±SEM values were calculated using JMP statistical software, version 5.1.2. […]

Data set [4] deals with MMTV-Her2 Fo5 transgenic mammary tumor. Put plainly: MMTV-Her2 Fo5 transgenic mammary tumor in Harlan athymic nude mice. In kind it is in vivo. The following applies: for single agent efficacy vs vehicle: FIG. 14, lapatinib 101 mg/kg po bid×21, pertuzumab 40 mg/kg iv qwk×4, B20-4.1 5 mg/kg ip 2×/wk×4, T-DM1 15 mg/kg iv q3wk; for efficacy vs vehicle by both time to tumor doubling and time to tumor endpoint: ABT-869 15 mg/kg, T-DM1 either 7.5 or 15 mg/kg. As for the experimental part:
as §1
The time to tumor doubling was measured by Kaplan-Meier statistical analysis as 2× Vo. Time to tumor doubling and survival analysis were quantified by Log-rank-p values. Time to progression is measured as the elapsed time for tumor volume to reach 1000 mm^3, or the survival time if 1000 mm^3 tumor volume is not reached.
as §3, §2

Data set [5] can be described thus: phase I study of GDC-0941 as a single agent. The class given is in vivo, human. The conditions noted are these: 60 mg qd.
[6] abbreviates: FIG. 37 (2), GNE-390 1.0 mg/kg po qd×21.
Where [7] appears, read: FIG. 37 (3), GNE-390 2.5 mg/kg po qd×21.
The mark [8] stands for this setting: FIG. 16, T-DM1 15 mg/kg iv q3wk×2, 15 mg/kg.
The mark [9] stands for this setting: FIG. 17, T-DM1 15 mg/kg iv q3wk×2.
The mark [10] stands for this setting: FIG. 36 (5), T-DM1 3 mg/kg iv q3wk.
Where [11] appears, read: FIG. 36 (6), T-DM1 10 mg/kg iv q3wk.
Setting [12] is: FIG. 36 (2), GDC-0941 25 mg/kg po qd×21.
[13] abbreviates: FIG. 36 (3), GDC-0941 50 mg/kg po qd×21.
[14] abbreviates: FIG. 36 (4), GDC-0941 100 mg/kg po qd×21.
Where [15] appears, read: pertuzumab 15 mg/kg, days 0, 7, 14.

As for `Cc1c(CN2CCN(C(=O)[C@H](C)O)CC2)sc2c(N3CCOCC3)nc(-c3cnc(N)nc3)nc12` [GNE-390, (S)-1-(4-((2-(2-aminopyrimidin-5-yl)-7-methyl-4-morpholinothieno[3,2-d]pyrimidin-6-yl)methyl)piperazin-1-yl)-2-hydroxypropan-1-one], in data set [1] (setting [6]), the “complete response (CR)” value was found to be 0 and the “partial responses (PR)” value is 0. For the same compound, in data set [1] (setting [7]), the “complete response (CR)” value came out at 0 and the “partial responses (PR)” value was 1.

For T-DM1, the “apoptosis (23 kDa PARP-cleavage fragment, Bcl-XL, activation of caspases 3 and 7)” value in data set [2] is “resulted in apoptosis”. The “phospho-Akt and phospho-ERK” value in data set [2] is “inhibition”. Further, the “levels of the mitotic markers phospho-histone H3 and cyclin B1” value in data set [2] (after treatment) is “increased levels”. The “complete responses (CR)” value was 0 in the data set with KPL-4 tumors (T-DM1 0.3 mg/kg once on day 0); 0 in the data set on KPL-4 tumors (T-DM1 1 mg/kg once on day 0); 0 in the data set with KPL-4 tumors (T-DM1 3 mg/kg once on day 0); 0 in data set [3]; 3 in data set [4] (setting [9]). Also, the “partial responses (PR)” value in the data set with KPL-4 tumors (T-DM1 0.3 mg/kg once on day 0) is 0; with KPL-4 tumors (T-DM1 1 mg/kg once on day 0), 1; in the data set on KPL-4 tumors (T-DM1 3 mg/kg once on day 0) it was 7; in data set [3], 1; in data set [4] (setting [8]), 6 and 5; in data set [4] (setting [9]), 6. The “partial responses (PR)” value in data set [1] (setting [10]) came out at 1; in data set [1] (setting [11]), 8. In addition, the “remaining tumors less than 50 mm^3 with no evidence of viable tumor cells (histology, end of study)” value with KPL-4 tumors (FIG. 11, T-DM1 5 mg/kg single iv, 5-FU 100 mg/kg qwk×3, pertuzumab 40 mg/kg qwk×4) was found to be 8 samples. In data set [4], the “single agent efficacy vs vehicle” value is recorded as “efficacious as a single agent”. In addition, the “efficacy vs vehicle by both time to tumor doubling and time to tumor endpoint” value in data set [4] (FIG. 15, p<0.01) is “significantly better than vehicle”. The objective responses result in data set [4] (FIG. 16, T-DM1 7.5 mg/kg iv q3wk×2) is given as “no objective responses”. Further, the “complete response (CR)” value in data set [4] (setting [8]) was 1 and 2; in data set [1] (setting [10]), 1; in data set [1] (setting [11]), 1.

As to `CC(=O)O[C@@]12CO[C@@H]1C[C@H](O)[C@@]1(C)C(=O)[C@H](O)C3=C(C)[C@@H](OC(=O)[C@H](O)[C@@H](NC(=O)OC(C)(C)C)c4ccccc4)C[C@@](O)([C@@H](OC(=O)c4ccccc4)[C@H]21)C3(C)C` [docetaxel, (2R,3S)—N-carboxy-3-phenylisoserine, N-tert-butyl ester, 13-ester with 5,20-epoxy-1,2,4,7,10,13-hexahydroxytax-11-en-9-one 4-acetate 2-benzoate, trihydrate, reference compound], the “partial responses (PR)” value in data set [4] (FIG. 16, docetaxel 30 mg/kg iv qwk×3) was 2.

Regarding `Cc1ccc(F)c(NC(=O)Nc2ccc(-c3cccc4[nH]nc(N)c34)cc2)c1` [ABT-869, 1-(4-(3-amino-1H-indazol-4-yl)phenyl)-3-(2-fluoro-5-methylphenyl)urea, reference compound], the “efficacy vs vehicle by time to tumor doubling” value in data set [4] (FIG. 15, ABT-869 5 mg/kg po bid×21) is “not different than vehicle”. For the same compound, in data set [4] (FIG. 15, ABT-869 5 mg/kg po bid×21, p<0.01), the “efficacy vs vehicle by time to endpoint” value is “significantly better than vehicle”. Besides, in data set [4] (FIG. 15, p<0.01), the “efficacy vs vehicle by both time to tumor doubling and time to tumor endpoint” value is on record as “significantly better than vehicle”.

As for `O=c1[nH]cc(F)c(=O)[nH]1` [5-FU, 5-fluoro-1H-pyrimidine-2,4-dione, reference compound], in data set [3], the “complete responses (CR)” value stood at 0 and the “partial responses (PR)” value is 0.

As to `CS(=O)(=O)CCNCc1ccc(-c2ccc3ncnc(Nc4ccc(OCc5cccc(F)c5)c(Cl)c4)c3c2)o1` [lapatinib, N-(3-chloro-4-(3-fluorobenzyloxy)phenyl)-6-(5-((2-(methylsulfonyl)ethylamino)methyl)furan-2-yl)quinazolin-4-amine, reference compound], the “single agent efficacy vs vehicle” value in data set [4] is reported as “not different from vehicle”.

For the compound `CS(=O)(=O)N1CCN(Cc2cc3nc(-c4cccc5[nH]ncc45)nc(N4CCOCC4)c3s2)CC1` [GDC-0941, 4-(2-(1H-indazol-4-yl)-6-((4-(methylsulfonyl)piperazin-1-yl)methyl)thieno[3,2-d]pyrimidin-4-yl)morpholine], in data set [2], the “phospho-Akt and phospho-ERK” value is reported as “inhibition”; the “phosphorylation of Rb and PRAS40” value is “decreased phosphorylation”. In data set [1] (setting [12]), the “complete response (CR)” value is reported as 0 and the “partial responses (PR)” value amounted to 0. Also, in data set [1] (setting [13]), the “complete response (CR)” value is given as 0 and the “partial responses (PR)” value is listed as 1. Further, in data set [1] (setting [14]), the “complete response (CR)” value is given as 0 and the “partial responses (PR)” value is 0. The “safety of the dose as a single agent” value in data set [5] was “safe as a single agent without any dose limiting toxicities”.

“pertuzumab: recombinant, humanized monoclonal antibody that inhibits dimerization of HER2 (CAS Reg. No. 380610-27-5) [reference compound]”: in the data set on KPL-4 tumors (setting [15]), the “complete responses (CR)” value is reported as 0 and the “partial responses (PR)” value was determined as 0. Further, the “single agent efficacy vs vehicle” value in data set [4] is recorded as “not different from vehicle”.
